This is an account of results in PubChem BioAssay (NCI).

Test systems include NCI-H460 lung; SN12C renal; OVCAR-3 ovarian; HCT-15 colon; HCT-116 colon; UACC-62 melanoma; HT29 colon; SK-MEL-5 melanoma; NCI-H522 lung; NCI/ADR-RES ovarian.
What all share (assay): growth of human tumour cells (NCI), 48 h

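Where inhibition never reached the appropriate level, the endpoint shown equals the highest concentration tested. Otherwise, values were interpolated linearly from a five-concentration, 48-hour dose response in 96-well plates. Here, GI50 denotes the concentration required for 50% inhibition of growth. TGI is the concentration that stops growth completely.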

As to `Nc1ccccc1Nc1ccccc1C(=O)[O-].Nc1ccccc1Nc1ccccc1C(=O)[O-].[Cu+2]`, the TGI in the test on NCI-H460 lung was > 100 µM; in the test on SN12C renal it was > 100 µM; with OVCAR-3 ovarian, > 100 µM; in the test on HCT-15 colon, > 100 µM; with HCT-116 colon it was > 100 µM; with UACC-62 melanoma, 44.3 µM. Moreover, the TGI in the test on HT29 colon, in the test with SK-MEL-5 melanoma and in the test with NCI-H522 lung was > 100 µM in each case.

With `CSC1=Nc2ccccc2N(C)c2c1c(-c1ccccc1)nn2C`, the TGI in the test with NCI-H460 lung, in the test on NCI/ADR-RES ovarian, with SN12C renal, in the test with OVCAR-3 ovarian, in the test on HCT-15 colon and in the test with HCT-116 colon was > 100 µM each time. For the same compound, the TGI is > 100 µM with UACC-62 melanoma, > 100 µM in the test on HT29 colon, 43.4 µM in the test on SK-MEL-5 melanoma and > 100 µM with NCI-H522 lung.

As for `O=C1CC(=O)N(c2ccccc2)N1/C(=C/c1ccccc1)c1ccccc1`, the TGI was 39 µM with NCI-H460 lung; 61.5 µM in the test with NCI/ADR-RES ovarian; 44.8 µM in the test with SN12C renal; 57.1 µM in the test with OVCAR-3 ovarian; 32 µM in the test on HCT-116 colon; 37.3 µM in the test on UACC-62 melanoma. The values for the TGI in the test on HT29 colon and with SK-MEL-5 melanoma were 44.2 µM and 28.2 µM, respectively.

With `C=CC(=O)Nc1cccc(-c2nc(SC)nc(Nc3ccccc3OC)c2C#N)c1`, the GI50 in the test with NCI/ADR-RES ovarian is 2.46 µM; with SN12C renal, 2.5 µM; in the test with OVCAR-3 ovarian it was 1.87 µM; in the test on UACC-62 melanoma, 2.81 µM; with SK-MEL-5 melanoma, 1.9 µM; in the test on NCI-H522 lung, 2.04 µM. The TGI in the test with NCI/ADR-RES ovarian is 6.99 µM; in the test with SN12C renal, 8.15 µM; in the test with OVCAR-3 ovarian, 3.58 µM; in the test on UACC-62 melanoma, 14.6 µM; in the test with SK-MEL-5 melanoma it was 4.32 µM; with NCI-H522 lung it was 6.53 µM.

With `CC(C)CC(N)C(=O)OCN1C(=O)C2C3C=CC(C2C1=O)C1C2C(=O)N(COC(=O)C(N)CC(C)C)C(=O)C2C31` (centres undefined), the TGI in the test on NCI-H460 lung was > 100 µM; in the test with SN12C renal, > 100 µM; in the test with OVCAR-3 ovarian it was > 100 µM; in the test with HCT-15 colon, > 64.5 µM; in the test with HCT-116 colon, > 60.5 µM; in the test on UACC-62 melanoma, > 100 µM. Moreover, the TGI in the test with HT29 colon, with SK-MEL-5 melanoma and with NCI-H522 lung was > 100 µM each time.

In the case of `CCn1cc(C(c2ccc(Cl)cc2)n2ccnc2)c2cc(Br)ccc21` (centres undefined), the TGI with NCI/ADR-RES ovarian is 42.7 µM; with SN12C renal it was > 100 µM; in the test with OVCAR-3 ovarian it was 22.2 µM; in the test on HCT-15 colon, 30.6 µM; with HCT-116 colon it was 33.8 µM; in the test on UACC-62 melanoma it was 25.2 µM. Moreover, the values for the TGI in the test on HT29 colon and in the test with SK-MEL-5 melanoma were 22.3 µM and 31.2 µM, respectively.

Regarding `Cc1ccc2c(c1)nc(N)n[n+]2[O-]`, the TGI in the test on NCI-H460 lung, with NCI/ADR-RES ovarian, in the test on SN12C renal, in the test with OVCAR-3 ovarian, in the test with HCT-15 colon and in the test on HCT-116 colon was > 100 µM each time. For the same compound, the TGI in the test on UACC-62 melanoma, in the test with HT29 colon, in the test with SK-MEL-5 melanoma and in the test on NCI-H522 lung was > 100 µM in each case.

Take `OCC1CCCC(n2cnc3c(=S)nc[nH]c32)O1` (centres undefined): the TGI in the test with NCI-H460 lung, in the test on NCI/ADR-RES ovarian, in the test on SN12C renal, with OVCAR-3 ovarian, in the test with HCT-15 colon and in the test on HCT-116 colon was > 100 µM each time. Further, the TGI in the test with UACC-62 melanoma, in the test on HT29 colon, in the test on SK-MEL-5 melanoma and in the test on NCI-H522 lung was > 100 µM each time.

Consider `Cc1[nH]c(/C=C2\C(=O)Nc3ccc(S(=O)(=O)Cc4c(Cl)cccc4Cl)cc32)c(C)c1C(=O)N1CCC[C@@H]1CN1CCCC1`, for which the GI50 was 2.96 µM with NCI/ADR-RES ovarian; 1.24 µM in the test with SN12C renal; 16 µM in the test on OVCAR-3 ovarian; 1.71 µM in the test with HCT-15 colon; 1.62 µM with HT29 colon; 2.58 µM in the test on SK-MEL-5 melanoma. In addition, the GI50 with NCI-H522 lung was 19.7 µM. Also, the TGI was > 24.4 µM in the test with NCI/ADR-RES ovarian; 2.57 µM in the test on SN12C renal; 47.4 µM with OVCAR-3 ovarian; 3.51 µM with HCT-15 colon; 3.07 µM in the test on HT29 colon; 15.8 µM with SK-MEL-5 melanoma. Further, the TGI in the test on NCI-H522 lung is 47.7 µM.

For the compound `COC1OC(=O)[C@H]2O[N+]([O-])=C(C)[C@@H]12` (some centres undefined), the TGI in the test with NCI-H460 lung, in the test on NCI/ADR-RES ovarian, in the test on SN12C renal, in the test with OVCAR-3 ovarian, with HCT-15 colon and in the test on HCT-116 colon was > 100 µM each time. Further, the TGI in the test on UACC-62 melanoma, in the test on HT29 colon, with SK-MEL-5 melanoma and with NCI-H522 lung was > 100 µM each time.

As to `O=C(O)c1ccc(NC(c2ccccc2)c2ccc3cccnc3c2O)cc1` (centres undefined), the TGI in the test on NCI-H460 lung is > 48.5 µM; in the test on NCI/ADR-RES ovarian it was > 45.3 µM; with SN12C renal it was > 54.1 µM; with OVCAR-3 ovarian, 14.2 µM; in the test with HCT-15 colon, > 100 µM; in the test with HCT-116 colon it was > 100 µM. Also, the TGI in the test with UACC-62 melanoma was 36.7 µM; in the test with HT29 colon, > 100 µM; in the test with SK-MEL-5 melanoma it was 29.8 µM; in the test with NCI-H522 lung it was 55.8 µM.

Take `N#Cc1c(NC(=S)NC(=O)c2ccccc2)nc2c(c1-c1ccccc1)CCC2`: the TGI in the test with NCI-H460 lung, in the test on NCI/ADR-RES ovarian, in the test on SN12C renal, in the test with OVCAR-3 ovarian, with HCT-15 colon and in the test on HCT-116 colon was > 100 µM throughout. In addition, the TGI in the test on UACC-62 melanoma, in the test on HT29 colon and in the test with SK-MEL-5 melanoma was > 100 µM each time.

As to `COc1cc2oc(-c3ccc(O)cc3)c(OC3OC(C)C(O)C(O)C3O)c(=O)c2c(O)c1OC` (centres undefined), the TGI in the test on NCI-H460 lung, with NCI/ADR-RES ovarian, in the test with SN12C renal, in the test on OVCAR-3 ovarian, in the test with HCT-15 colon and in the test on HCT-116 colon was > 100 µM throughout. Besides, the TGI with UACC-62 melanoma, with HT29 colon, with SK-MEL-5 melanoma and in the test with NCI-H522 lung was > 100 µM in each case.

Consider `O=[Se]([O-])c1ccccc1.O=[Se]([O-])c1ccccc1.[OH3+].[OH3+].[Pt+2]`, for which the GI50 is 18.6 µM in the test on NCI-H460 lung; 2.8 µM in the test on NCI/ADR-RES ovarian; 9.71 µM in the test with SN12C renal; 7.91 µM in the test with OVCAR-3 ovarian; 6.02 µM in the test with HCT-15 colon; 3.14 µM in the test with HCT-116 colon. Besides, the GI50 is 13.1 µM in the test on UACC-62 melanoma, 3.09 µM in the test on HT29 colon, 13.9 µM with SK-MEL-5 melanoma and 2.51 µM in the test on NCI-H522 lung. Also, the TGI is > 86.1 µM with NCI-H460 lung; 9.89 µM with NCI/ADR-RES ovarian; 53.3 µM in the test on SN12C renal; 32.8 µM in the test on OVCAR-3 ovarian; 28.6 µM in the test on HCT-15 colon; 9.5 µM in the test with HCT-116 colon. Besides, the TGI in the test on UACC-62 melanoma worked out at 55.6 µM; with HT29 colon, 14.6 µM; in the test on SK-MEL-5 melanoma, 30.5 µM; in the test with NCI-H522 lung, 13.4 µM.

For the compound `O=C(Nc1ccc(I)cc1C(=O)NCCO)c1cccs1`, the TGI in the test on NCI-H460 lung, in the test with NCI/ADR-RES ovarian, in the test on SN12C renal, in the test on OVCAR-3 ovarian, in the test on HCT-15 colon and in the test on HCT-116 colon was > 100 µM throughout. Moreover, the TGI with UACC-62 melanoma, in the test on HT29 colon, with SK-MEL-5 melanoma and in the test with NCI-H522 lung was > 100 µM in each case.

Consider `Nc1n[nH]c(=O)[nH]1`, for which the TGI in the test on NCI-H460 lung, with NCI/ADR-RES ovarian, with SN12C renal, in the test with OVCAR-3 ovarian, with HCT-15 colon and with HCT-116 colon was > 100 µM throughout. For the same compound, the TGI with UACC-62 melanoma, in the test on HT29 colon, in the test on SK-MEL-5 melanoma and in the test on NCI-H522 lung was > 100 µM in each case.

As for `CCC(=O)C(c1ccccc1)c1ccccn1` (centres undefined), the TGI with NCI-H460 lung, in the test with NCI/ADR-RES ovarian, in the test on SN12C renal, in the test on OVCAR-3 ovarian, in the test with HCT-15 colon and with HCT-116 colon was > 100 µM each time. The TGI in the test on UACC-62 melanoma, in the test on HT29 colon, with SK-MEL-5 melanoma and in the test with NCI-H522 lung was > 100 µM each time.
